Experimental data: US12195427B2, “MASP-2 inhibitors and methods of use” (priority 2018, dated 2025)

Target: MASP-2 CCP2-SP (Homo sapiens (Human), UniProt O00187)
Assay: MASP-2 co-crystallization, X-ray crystallography and structure analysis (H-bonds, van der Waals contacts);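 on Ligand-pharmacophore element distance, pharmacophore element C2: distance from averaged pharmacophore element to bound ligand; missing value means element absent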;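 on Ligand-pharmacophore element distance, pharmacophore element C3: distance from averaged pharmacophore element to bound ligand; missing value means element absent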;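 on Ligand-pharmacophore element distance, pharmacophore element C4: distance from averaged pharmacophore element to bound ligand; missing value means element absent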;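 on Ligand-pharmacophore element distance, pharmacophore element C5: distance from averaged pharmacophore element to bound ligand; missing value means element absent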
Set-up: van der Waals contact distance, MASP-2 HIS 483 atom CD2 / van der Waals contact distance, MASP-2 HIS 483 atom NE2 / van der Waals contact distance, SER 654 C to compound atom / van der Waals contact distance, SER 654 O to compound atom / van der Waals contact distance, TRP 655 C to compound atom / van der Waals contact distance, MASP-2 GLY 528 atom CA / van der Waals contact distance TRP 655 atom CZ3 / van der Waals contact distance TRP 655 atom N / van der Waals contact distance TRP 655 atom CE3 / van der Waals contact distance GLY 656 atom C / van der Waals contact distance GLY 656 atom CA / van der Waals contact distance GLY 656 atom O / van der Waals contact distance, MASP-2 TYR 607 atom CD1 / van der Waals contact distance, MASP-2 PRO 606 atom O / d(C3,CA1) / d(CA1,N1)2 / d(H4,O1) / d(H4,O2) / d(O1,O2) / d(CA1,O2) / d(CA6,O1) / d(CA6,O2) / d(CA1,C5) / d(O2,H3) / d(N2,C2) / d(CA5,N2) / d(N2,C4) / d(N2,C6) / d(N2,CA3) / d(N2,O3) / d(O4,H2): unit not given beside the values
Conditions: for H-bond distance to MASP-2 GLY 656 atom N: GLY 656 N; for H-bond distance to MASP-2 GLY 656 atom O: GLY 656 O; for H-bond distance to MASP-2 SER 628 atom O: SER 628 O; for H-bond distance to MASP-2 SER 654 atom O: SER 654 O; for H-bond distance to MASP-2 SER 657 atom O: SER 657 O; for van der Waals contact distance, MASP-2 HIS 483 atom CD2 / van der Waals contact distance, MASP-2 HIS 483 atom NE2: Table A2-1; for van der Waals contact distance TRP 655 atom CE3 / van der Waals contact distance TRP 655 atom CZ3: Table A2-13; for van der Waals contact distance TRP 655 atom CE3: MASP-2 TRP 655 CE3, compound atom in line below; for van der Waals contact distance TRP 655 atom CZ3: MASP-2 TRP 655 CZ3; for Ligand-pharmacophore element distance, pharmacophore element C2 / Ligand-pharmacophore element distance, pharmacophore element C3 / Ligand-pharmacophore element distance, pharmacophore element C4 / Ligand-pharmacophore element distance, pharmacophore element C5 / Ligand-pharmacophore element distance, pharmacophore element C6 / Ligand-pharmacophore element distance, pharmacophore element C7 / Ligand-pharmacophore element distance, pharmacophore element CA1 / Ligand-pharmacophore element distance, pharmacophore element CA2 / Ligand-pharmacophore element distance, pharmacophore element CA3 / Ligand-pharmacophore element distance, pharmacophore element CA4 / Ligand-pharmacophore element distance, pharmacophore element CA5 / Ligand-pharmacophore element distance, pharmacophore element CA6: Table A4-1
Text: This example illustrates the preparation of recombinant MASP-2 protein, based on UniProt O00187, human mannan-binding lectin serine protease 2. Expression constructs for human MASP-2 CCP2-SP and CCP2-SP-6HIS were generated for recombinant expression in E. coli cells.
Typically, crystallization hits were obtained by screening against […] 96-well crystallization reagent kits (GRAS6, GRAS2, Hampton Research; MORPHEUS, Molecular Dimensions; Wizard 1&2 Cryo, Rigaku Reagents) and crystal growth was inspected by optical microscopy. Crystals were used directly or further optimized for X-ray diffraction. Crystals were captured with cryogenic loops and dipped into liquid nitrogen directly or cryoprotected with a 20% glycerol in crystallization formulation before flash-cooling in liquid nitrogen.
Thereafter crystals are transferred once or twice for soaking within the crystallization solution containing the MASP-2 inhibitor.
Crystals were diffracted with synchrotron X-rays of […] and X-ray diffraction datasets were collected at beamlines SSRL BL9-2, BL14-1, BL12-2 as well as ALS sector 5 using Dectris Pilatus and Eiger detectors. Structures were determined by molecular replacement using portions of the structure 1Q3X as search models and partially refined with Buster 2.10.2 or Refmac 5.8. […] When multiple ligand poses were observed, for instance arising from multiple molecules in the asymmetric unit or refined dual poses within the same molecule, only one pose was selected and analyzed.
LigPlot+ calls these ‘nonbonded contacts’ or ‘hydrophobic contacts’. Despite the name, there are atom pairings that include possible H-bonds. Thus, in some instances, the Table A2 also contains H-bond interactions.

[1] = Table A5-1 pharmacophore: distance between elements, S2/S1 region
[2] = Table A5-2 pharmacophore distance, S3/S4 region
[3] = Table A7-1, between pharmacophore elements of the bound compound

Chain of MASP-2 CCP2-SP (O00187 445-686): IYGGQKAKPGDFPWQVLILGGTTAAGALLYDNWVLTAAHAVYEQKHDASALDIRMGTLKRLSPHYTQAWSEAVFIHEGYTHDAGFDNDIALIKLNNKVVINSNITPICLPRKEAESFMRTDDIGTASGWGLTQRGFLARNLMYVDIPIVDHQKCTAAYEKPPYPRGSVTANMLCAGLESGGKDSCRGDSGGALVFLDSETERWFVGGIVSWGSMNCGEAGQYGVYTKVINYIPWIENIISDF
Chain of MASP-2 CCP2-SP (O00187 364-432 partner): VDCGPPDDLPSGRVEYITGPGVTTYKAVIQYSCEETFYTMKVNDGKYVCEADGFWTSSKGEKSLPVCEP

## Cc1nc(N)ccc1CNC(=O)[C@H](C)NC(=O)c1cc(Cc2ccccc2)n[nH]1 [compound 1367, (S)—N-(1-(((6-Amino-2-methylpyridin-3-yl)methyl)amino)-1-oxopropan-2-yl)-3-benzyl-1H-pyrazole-5-carboxamide]
Table A1 (H-Bonds), ASP 627 OD2
  H-bond distance to MASP-2 ASP 627 atom OD2: 3.15
Table A1 (H-Bonds)
  H-bond distance to MASP-2 GLY 656 atom N: 3.15
  H-bond distance to MASP-2 GLY 656 atom O: 2.77
  H-bond distance to MASP-2 SER 628 atom O: 3.15
  H-bond distance to MASP-2 SER 654 atom O: 3.08
  H-bond distance to MASP-2 SER 657 atom O: 2.88
  van der Waals contact distance, MASP-2 HIS 483 atom CD2: 3.71
  van der Waals contact distance, MASP-2 HIS 483 atom NE2: 3.59
  van der Waals contact distance TRP 655 atom CE3: 3.89
  van der Waals contact distance TRP 655 atom CZ3: 3.86
  Ligand-pharmacophore element distance, pharmacophore element C2: 0
  Ligand-pharmacophore element distance, pharmacophore element C3: 0.13
  Ligand-pharmacophore element distance, pharmacophore element C4: 0
  Ligand-pharmacophore element distance, pharmacophore element C5: 0
  Ligand-pharmacophore element distance, pharmacophore element C6: 0
  Ligand-pharmacophore element distance, pharmacophore element C7: 0
  Ligand-pharmacophore element distance, pharmacophore element CA1: 0.5
  Ligand-pharmacophore element distance, pharmacophore element CA2: 0.57
  Ligand-pharmacophore element distance, pharmacophore element CA3: 0
  Ligand-pharmacophore element distance, pharmacophore element CA4: 0
  Ligand-pharmacophore element distance, pharmacophore element CA5: 3.27
  Ligand-pharmacophore element distance, pharmacophore element CA6: 0
Table A2-3
  van der Waals contact distance, MASP-2 PHE 529 atom CD2: 3.8
Table A2-6: SER 611 (CB, OG), ASP 627 (CG, OD1, OD2), SER 628 (C, CA)
  van der Waals contact distance, MASP-2 amino acid atom to compound atom: 3.71
Table A2-7: SER 628 (CB, O, OG)
  van der Waals contact distance, MASP-2 amino acid atom to compound atom: 3.56
Table A2-9, ARG 630, AA atoms CG, CZ
  van der Waals contact distance, MASP-2 amino acid atom to compound atom: 3.86
Table A2-9 second part, ARG 630, AA atoms N, NE, NH1
  van der Waals contact distance, MASP-2 amino acid atom to compound atom: 3.8
Table A2-11
  van der Waals contact distance, VAL 653 CG1 to compound atom: 3.35
Table A2-12
  van der Waals contact distance, SER 654 O to compound atom: 3.87
  van der Waals contact distance, TRP 655 CA to compound atom: 3.29
[1]
  d(C3,CA1): 2.85
  d(CA1,N1)2: 1.39
  d(CA1,O1): 4.35
  d(CA1,O2): 5.37
  d(H4,O1): 4.37
  d(H4,O2): 5.63
  d(O1,O2): 4.72
[2]
  d(O2,H3): 2.68
Table A6-1 pharmacophore angle
  a(C3, CA1, O1): 149.67
  a(CA1, O1, O2): 129.48
  a(O1, O2, H4): 125.36
Table A6-1 pharmacophore angle, Methyl-amino-pyridine compounds
  a(N1, CA1, O1) b): 173.97
Table A6-2 pharmacophore angle
  a(O1, O2, H3): 107.78
[3]
  Pharmacophore torsion angle a(C3, CA1, O1, H4): 23.21
  Pharmacophore torsion angle a(H4, O1, O2, H3): 42.45
  Pharmacophore torsion angle a(N1, CA1, O1, H4): 1.25
  Pharmacophore torsion angle a(O1, H4, O2, CA1): −85.54

## Cc1nc(N)ccc1CNC(=O)[C@H](C)NC(=O)[C@H]1C[C@H](Cc2cccc(Cl)c2)CN1 [compound 1328, (2R,4S)—N—((S)-1-(((6-amino-2-methylpyridin-3-yl)methyl)amino)-1-oxopropan-2-yl)-4-(3-chlorobenzyl)pyrrolidine-2-carboxamide]
Table A1 (H-Bonds)
  H-bond distance to MASP-2 GLY 656 atom N: 3.33
  H-bond distance to MASP-2 GLY 656 atom O: 2.82
  H-bond distance to MASP-2 SER 628 atom O: 3.06
  H-bond distance to MASP-2 SER 654 atom O: 2.67
  H-bond distance to MASP-2 SER 657 atom O: 2.44
  van der Waals contact distance, MASP-2 HIS 483 atom CD2: 3.79
  van der Waals contact distance, MASP-2 HIS 483 atom NE2: 3.73
  van der Waals contact distance TRP 655 atom CE3: 3.49
  van der Waals contact distance TRP 655 atom CZ3: 3.53
Table A2-3
  van der Waals contact distance, MASP-2 PHE 529 atom CD1: 3.78
Table A2-11
  van der Waals contact distance, SER 654 C to compound atom: 3.62
  van der Waals contact distance, VAL 653 CG1 to compound atom: 3.23

## C[C@H](NC(=O)[C@H]1C[C@@H](c2ccccc2)CCN1)C(=O)NCc1cc(Cl)ccc1O.Cl [1078_3]
  Ligand-pharmacophore element distance, pharmacophore element C2: 0.43
  Ligand-pharmacophore element distance, pharmacophore element C3: 0
  Ligand-pharmacophore element distance, pharmacophore element C4: 0
  Ligand-pharmacophore element distance, pharmacophore element C5: 0.45
  Ligand-pharmacophore element distance, pharmacophore element C6: 0
  Ligand-pharmacophore element distance, pharmacophore element C7: 0
  Ligand-pharmacophore element distance, pharmacophore element CA1: 1.53
  Ligand-pharmacophore element distance, pharmacophore element CA2: 0.27
  Ligand-pharmacophore element distance, pharmacophore element CA3: 0
  Ligand-pharmacophore element distance, pharmacophore element CA4: 0
  Ligand-pharmacophore element distance, pharmacophore element CA5: 0
  Ligand-pharmacophore element distance, pharmacophore element CA6: 0
[1]
  d(CA1,C5): 3.13
  d(CA1,O1): 4.44
  d(CA1,O2): 4.54
  d(CA1,O4): 2.75
  d(H4,O1): 3.13
  d(H4,O2): 3.61
  d(O1,O2): 3.17
  d(O4,H2): 0.98
[2]
  d(N2,C2): 1.45
  d(N2,CA2): 5.70
  d(O2,H3): 2.05
  d(O2,N2): 2.79
Table A6-1 pharmacophore angle
  a(C5, CA1, O1): 162.08
  a(CA1, O1, O2): 112.44
  a(CA1, O4, H2): 128.44
  a(O1, CA1, O4): 67.41
  a(O1, O2, H4): 124.44
Table A6-2 pharmacophore angle
  a(O1, O2, H3): 132.07
  a(O1, O2, N2): 145.54
  a(O2, N2, C2): 126.01
  a(O2, N2, CA2): 154.83
[3]
  Pharmacophore torsion angle a(C5, CA1, O1, H4): −5.62
  Pharmacophore torsion angle a(H4, O1, O2, H3): −160.53
  Pharmacophore torsion angle a(H4, O1, O2, N2): −166.69
  Pharmacophore torsion angle a(O1, H4, O2, CA1): −82.33
  Pharmacophore torsion angle a(O1, O2, N2, C2): 132.95
Table A7-2, between pharmacophore elements of the bound compound
  Pharmacophore torsion angle a(O1, O2, N2, CA2): 140.71
